From article PMC7832087 (European journal of medicinal chemistry, 2016)

Tests used:
[1] = system: K562 and K562/4 cells; experiment: Intracellular drug accumulation; format: cell-based, human; settings: 1 μM, 1 h to 24 h
[2] = target: Top2 (Homo sapiens, UniProt P11388); experiment: Top2 DNA relaxation assay; format: biochemical
[3] = system: donor peripheral blood lymphocytes; experiment: Cytotoxicity for donor lymphocytes; format: cell-based; settings: data not shown
[4] = system: Top1; experiment: Top1 DNA relaxation assay; format: biochemical; settings: no influence at ≤1 μM, effect at 5 μM and 10 μM
[5] = target: T1, Top1 (Homo sapiens, UniProt P11387); experiment: Top1 mediated DNA cleavage; format: biochemical; settings: 117 bp oligonucleotide with Top1 cleavage sites
T1 sequence (P11387 1-765): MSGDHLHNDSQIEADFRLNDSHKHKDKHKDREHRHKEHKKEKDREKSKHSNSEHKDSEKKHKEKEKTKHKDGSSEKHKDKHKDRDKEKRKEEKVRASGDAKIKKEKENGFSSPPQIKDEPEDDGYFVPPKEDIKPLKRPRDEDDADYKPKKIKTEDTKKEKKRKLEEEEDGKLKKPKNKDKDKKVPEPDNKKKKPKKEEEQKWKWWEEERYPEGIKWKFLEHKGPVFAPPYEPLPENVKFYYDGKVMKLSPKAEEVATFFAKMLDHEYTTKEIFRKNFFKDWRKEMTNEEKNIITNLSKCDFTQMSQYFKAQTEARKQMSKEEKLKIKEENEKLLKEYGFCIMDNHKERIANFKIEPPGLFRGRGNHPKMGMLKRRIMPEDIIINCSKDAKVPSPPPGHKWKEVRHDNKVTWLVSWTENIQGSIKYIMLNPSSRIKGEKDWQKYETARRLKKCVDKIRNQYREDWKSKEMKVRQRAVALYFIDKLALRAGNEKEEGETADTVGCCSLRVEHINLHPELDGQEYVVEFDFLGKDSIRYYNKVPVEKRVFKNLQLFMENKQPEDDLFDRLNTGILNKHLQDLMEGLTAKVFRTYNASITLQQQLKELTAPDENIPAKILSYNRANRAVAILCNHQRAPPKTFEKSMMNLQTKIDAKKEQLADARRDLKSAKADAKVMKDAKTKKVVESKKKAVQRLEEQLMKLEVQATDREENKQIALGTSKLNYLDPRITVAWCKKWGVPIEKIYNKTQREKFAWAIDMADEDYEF

[6] = system: HCT116 and HCT116p53KO cells; experiment: Annexin V-FITC / PI staining; format: cell-based, human; settings: 1 μM, 24 h
[7] = system: 364 human protein kinases; experiment: In vitro kinase panel; format: biochemical
[8] = system: i.p. transplanted P388 leukemia; experiment: Antitumor efficacy, i.p. transplanted P388 leukemia
[9] = target: Aurora B (Homo sapiens, UniProt Q96GD4); experiment: In vitro kinase assay, Aurora B; format: biochemical
[10] = system: i.p. transplanted P388 leukemia; settings: similar treatment schedule, total dose 150 mg/kg for five days; cited from earlier work
[11] = Water solubility of salts; format: physicochemical

Sequence of Top2 (P11388 whole entry, species assumed): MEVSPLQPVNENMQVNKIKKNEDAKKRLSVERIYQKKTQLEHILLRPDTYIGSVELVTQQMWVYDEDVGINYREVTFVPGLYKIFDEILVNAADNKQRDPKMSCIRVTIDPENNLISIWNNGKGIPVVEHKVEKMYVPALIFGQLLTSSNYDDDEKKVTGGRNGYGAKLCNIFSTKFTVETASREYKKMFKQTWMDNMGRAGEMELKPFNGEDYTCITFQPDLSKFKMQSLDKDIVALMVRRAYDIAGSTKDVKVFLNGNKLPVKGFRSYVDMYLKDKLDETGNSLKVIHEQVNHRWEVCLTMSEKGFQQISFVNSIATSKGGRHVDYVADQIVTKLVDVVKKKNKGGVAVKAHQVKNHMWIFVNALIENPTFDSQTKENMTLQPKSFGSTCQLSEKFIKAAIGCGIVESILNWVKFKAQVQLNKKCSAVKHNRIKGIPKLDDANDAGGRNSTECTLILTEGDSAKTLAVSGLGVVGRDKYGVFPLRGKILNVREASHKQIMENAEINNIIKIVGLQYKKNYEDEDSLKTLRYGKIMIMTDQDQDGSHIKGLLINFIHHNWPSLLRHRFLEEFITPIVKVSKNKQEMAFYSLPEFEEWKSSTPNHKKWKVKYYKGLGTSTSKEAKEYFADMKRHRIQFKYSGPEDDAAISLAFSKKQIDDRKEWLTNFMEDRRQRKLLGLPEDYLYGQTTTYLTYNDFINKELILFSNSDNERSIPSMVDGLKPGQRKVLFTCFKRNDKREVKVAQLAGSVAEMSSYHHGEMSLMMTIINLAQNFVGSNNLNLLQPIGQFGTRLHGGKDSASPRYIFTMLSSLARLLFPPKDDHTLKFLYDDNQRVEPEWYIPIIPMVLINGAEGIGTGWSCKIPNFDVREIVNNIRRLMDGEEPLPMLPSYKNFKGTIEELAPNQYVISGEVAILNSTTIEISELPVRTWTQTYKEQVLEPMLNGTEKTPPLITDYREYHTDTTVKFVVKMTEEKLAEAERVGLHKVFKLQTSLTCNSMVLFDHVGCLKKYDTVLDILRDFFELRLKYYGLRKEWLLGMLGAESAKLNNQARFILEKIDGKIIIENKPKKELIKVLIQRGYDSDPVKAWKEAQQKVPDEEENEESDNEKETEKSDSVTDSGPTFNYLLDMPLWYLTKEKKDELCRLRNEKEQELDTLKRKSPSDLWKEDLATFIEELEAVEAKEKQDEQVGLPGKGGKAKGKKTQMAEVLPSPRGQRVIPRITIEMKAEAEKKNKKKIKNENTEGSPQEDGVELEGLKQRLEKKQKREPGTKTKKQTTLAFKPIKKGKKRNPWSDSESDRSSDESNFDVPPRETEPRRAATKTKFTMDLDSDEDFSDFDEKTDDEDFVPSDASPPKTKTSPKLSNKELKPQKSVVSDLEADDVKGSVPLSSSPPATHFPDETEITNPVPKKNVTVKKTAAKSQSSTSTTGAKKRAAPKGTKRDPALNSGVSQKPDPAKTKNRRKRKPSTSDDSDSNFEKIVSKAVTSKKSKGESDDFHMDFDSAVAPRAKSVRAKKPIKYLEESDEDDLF
Sequence of Aurora B (Q96GD4 whole entry): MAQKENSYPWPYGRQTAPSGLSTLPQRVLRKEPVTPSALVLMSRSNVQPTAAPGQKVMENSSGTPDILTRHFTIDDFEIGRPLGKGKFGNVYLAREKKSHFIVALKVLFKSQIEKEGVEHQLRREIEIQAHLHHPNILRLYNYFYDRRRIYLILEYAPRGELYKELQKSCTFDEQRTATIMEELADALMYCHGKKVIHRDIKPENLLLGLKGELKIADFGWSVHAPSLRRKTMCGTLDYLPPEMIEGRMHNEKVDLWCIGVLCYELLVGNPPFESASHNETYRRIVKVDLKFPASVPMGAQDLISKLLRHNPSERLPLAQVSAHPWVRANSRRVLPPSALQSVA

COc1cccc2c1C(=O)c1c(O)c3c(c(O)c1C2=O)C[C@@](O)(C(=O)CO)C[C@@H]3O[C@H]1C[C@H](N)[C@H](O)[C@H](C)O1 [Compound 1, doxorubicin, reference compound]
cell associated fluorescence (intracellular accumulation), K562 vs K562/4 [1]: increased to a much lesser extent

COc1cc([C@@H]2c3cc4c(cc3[C@@H](O[C@@H]3O[C@@H]5CO[C@@H](C)O[C@H]5[C@H](O)[C@H]3O)[C@H]3COC(=O)[C@H]23)OCO4)cc(OC)c1O [VP16, etoposide, reference compound]
Top2 mediated plasmid DNA relaxation [2]: even at 200 μM of VP16 the DNA remained largely unwound

CS(=O)(=O)O.Cc1oc2c(O)c3c(c(O)c2c1C(=O)N1CC[C@@H](N)C1)C(=O)c1ccccc1C3=O [Compound 3c, (R)-3-(3-Aminopyrrolidine-1-carbonyl)-4,11-dihydroxy-2methylanthra [2,3-b]furan-5,10-dione methanesulfonate]
cytotoxicity against donor peripheral blood lymphocytes [3]: no detectable cytotoxicity | cell associated fluorescence (intracellular accumulation), K562 vs K562/4 [1]: increased similarly over time | Top1 mediated relaxation of supercoiled plasmid DNA [4]: attenuated Top1 mediated relaxation of the supercoiled plasmid DNA in a dose dependent manner | Top1 mediated specific DNA cleavage [5]: poorly generated the specific DNA cleavage | Top2 mediated plasmid DNA relaxation [2]: even at 40 μM a certain amount of relaxed plasmid DNA was detectable

CS(=O)(=O)O.Cc1oc2c(O)c3c(c(O)c2c1C(=O)N1CC[C@H](N)C1)C(=O)c1ccccc1C3=O [Compound 3d, (S)-3-(3-Aminopyrrolidine-1-carbonyl)-4,11-dihydroxy-2methylanthra [2,3-b]furan-5,10-dione methanesulfonate]
cytotoxicity against donor peripheral blood lymphocytes [3]: no detectable cytotoxicity | cell associated fluorescence (intracellular accumulation), K562 vs K562/4 [1]: increased similarly over time | apoptotic (Annexin V+/PI−) events [6]: increased percentage of apoptotic | Top1 mediated relaxation of supercoiled plasmid DNA [4]: attenuated Top1 mediated relaxation of the supercoiled plasmid DNA in a dose dependent manner | Top1 mediated specific DNA cleavage [5]: poorly generated the specific DNA cleavage | Top2 mediated plasmid DNA relaxation [2]: even at 40 μM a certain amount of relaxed plasmid DNA was detectable | human protein kinases attenuated (IC50 < 5 μM) out of 364 [7]: 2.5% | T/C, % ([8]; Table 3, n = 6, single 50 mg/kg i.p. daily days 1–5 (total 250 mg/kg)): death from drug toxicity | toxicity at single dose of 50 mg/kg ([8]; single dose 50 mg/kg i.p. daily for 5 days (total 250 mg/kg)): lethally toxic | general drug toxicity ([8]; single doses of 5–40 mg/kg i.p. daily for 5 days, during or after treatment): No signs of general drug toxicity

O=C1c2ccccc2C(=O)c2c1c(O)c1[nH]cc(CN[C@@H]3CCNC3)c1c2O [Compound 2]
Top1 mediated specific DNA cleavage [5]: cleaved some but not all these sites | IC50 [9]: 130 to 150 µM | T/Cmax [10]: 155%

COc1cc2c3c(n(CCCNCCO)c(=O)c2cc1OC)-c1cc2c(cc1C3=O)OCO2 [MJ–III–65]
Top1 mediated specific DNA cleavage [5]: pattern of bands characteristic for specific Top1 poisons

CC[C@@]1(O)C(=O)OCc2c1cc1n(c2=O)Cc2cc3ccccc3nc2-1 [CPT, camptothecin]
Top1 mediated specific DNA cleavage [5]: pattern of bands characteristic for specific Top1 poisons

CS(=O)(=O)O.Cc1oc2c(O)c3c(c(O)c2c1C(=O)N1CCN(C)CC1)C(=O)c1ccccc1C3=O [Compound 3l, 4,11-Dihydroxy-2-methyl-3-(4-methylpiperazine-1carbonyl)anthra [2,3-b]furan-5,10-dione methanesulfonate]
water solubility of the salt [11]: water soluble mesylates
